IC50 data for one molecule are collected here from paper PMC6384562, “Isolation of Two New Compounds and Other Constituents from Leaves of Piper crocatum and Study of Their Soluble Epoxide Hydrolase Activities” (Molecules, 2019).

This experiment addresses T1, soluble epoxide hydrolase (sEH) (Homo sapiens, UniProt P34913).
T1 construct: gene EPHX2
T1 sequence (P34913 1-555): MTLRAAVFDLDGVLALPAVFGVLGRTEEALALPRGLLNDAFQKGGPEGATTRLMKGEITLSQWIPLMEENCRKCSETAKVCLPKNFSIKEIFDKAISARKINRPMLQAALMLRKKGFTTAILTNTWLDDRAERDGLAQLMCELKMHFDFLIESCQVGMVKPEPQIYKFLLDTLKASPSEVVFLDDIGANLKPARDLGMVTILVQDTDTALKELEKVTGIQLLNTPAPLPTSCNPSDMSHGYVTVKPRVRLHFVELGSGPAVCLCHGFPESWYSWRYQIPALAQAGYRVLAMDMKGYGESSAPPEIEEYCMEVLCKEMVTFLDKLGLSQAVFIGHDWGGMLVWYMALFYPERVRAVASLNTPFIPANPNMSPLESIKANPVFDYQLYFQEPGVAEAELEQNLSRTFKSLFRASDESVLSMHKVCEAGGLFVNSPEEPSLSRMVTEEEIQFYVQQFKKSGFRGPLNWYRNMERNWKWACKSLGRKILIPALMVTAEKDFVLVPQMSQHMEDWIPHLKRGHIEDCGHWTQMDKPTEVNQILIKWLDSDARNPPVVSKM
The experiment can be described thus: fluorescence assay with recombinant human sEH and PHOME substrate. It counts as biochemical.

For orientation: IC50 means the concentration needed to halve the response being measured. Take `C=CCc1cc(OC)c(O[C@@H]2O[C@H](CO)[C@@H](O)[C@H](O)[C@H]2O)c(OC)c1` [compound 5, erigeside II]: the IC50 was 58.5 ± 0.5 µM.
